Assay results published in patent US20250312369A1, “ANTI-AGING AND ANTI-INFLAMMATORY COMPOSITIONS COMPRISING NICOTINAMIDE MONONUCLEOTIDE AND RESVERATROL AND USES THEREOF” (WONDERFEEL, priority 2022, published 2025).

Assays:
[1] = tested on: human lung epithelial cell line (A549); assay: LDH release after hydrogen peroxide and hypoxic injury in A549 cells; assay type: cell-based; conditions: 100 micromolar H2O2, 18 hours at 37° C., 95% nitrogen and 5% carbon dioxide, treatment agents 10 micromolar in the media
Method: In order to model cytoprotective effects of the invention, a reductionist in vitro model was employed wherein a human lung epithelial cell line (A549) was exposed to severe oxidant and hypoxic stress. Cultured A549 cells were placed in 96 well plates, incubated in Dulbecco's Modified Eagle's Medium (DMEM), and allowed to grow to confluence over 72 hours. Cellular injury was created by the addition into the media of 100 micromolar hydrogen peroxide (H2O2), followed by incubation at 37° C. for 18 hours in an atmosphere of 95% nitrogen and 5% carbon dioxide, which maintained a pH in the incubation media of 7.4. Three experimental arms were evaluated, using quadruplicate replicates, as follows: a) media control, b) NMN, and c) NMN plus resveratrol and hydroxytyrosol. A control arm was examined that was not exposed to hydrogen peroxide. The treatment agents were added such that their final concentration in the media was 10 micromolar. lactate dehydrogenase (LDH) was assayed in the media after 18 hours using a commercial kit, based upon a colorimetric change quantified by visible spectrophotometry.

[2] = prediabetic women, clinical trial 2021; cited from earlier work
sirtuin-1 = conditions: 500 mg/day, healthy and slightly overweight subjects; cited from earlier work
[3] = animals and humans, even at high doses; cited from earlier work

In the case of `NC(=O)c1ccc[n+]([C@@H]2O[C@H](COP(=O)([O-])O)[C@@H](O)[C@H]2O)c1` [NMN, 3-carbamoyl-1-[5-O-(hydroxyphosphinato)-β-D-ribofuranosyl] pyridinium], the “reduction in the elevation in LDH release produced by addition of hydrogen peroxide alone” value [1] is listed as 14% and the muscular insulin sensitivity [2] is listed as “improve muscular insulin sensitivity”.
In the case of `Oc1ccc(/C=C/c2cc(O)cc(O)c2)cc1` [resveratrol, 3,4′,5-trihydroxy-trans-stilbene], the “gene expression and serum concentration of sirtuin-1” value (sirtuin-1) is listed as “higher gene expression and serum concentration of sirtuin-1”.
For `C[N+](C)(C)[C@@H](Cc1c[nH]c(=S)[nH]1)C(=O)[O-]` [ergothioneine, (2S)-3-(2-sulfanylidene-2,3-dihydro-1H-imidazol-4-yl)-2-(trimethylazaniumyl)propanoate], the “toxicity or adverse effects associated with administration” value [3] is listed as “no toxicity or adverse effects”.
